For series [1], the system named is classical pathway activation (C3b deposition). As to the kind of experiment: Classical pathway activation ELISA (C3b deposition) with or without rabbit vitreous. The class given is biochemical, human. The note with it: in the absence of vitreous. As for the experimental part: An alternative explanation to the one presented above is that the vitreous contains additional unidentified factors that associate with the Cp40-KKK analog. To investigate whether an unidentified vitreous factor impacts the complement inhibitory activity of lysine containing compounds, complement activation assays were performed using vitreous samples. Briefly, human plasma was incubated with OVA-anti-OVA immune-complexes in the presence of serial dilutions of the Cp40-based analogs mixed with rabbit vitreous. Levels of classical pathway activation (C3b deposition) were determined by ELISA using a polyclonal anti-human C3 antibody conjugated with HRP (MP Biomedicals, Solon, Ohio) (FIG. 20).
Background: An ELISA detects its analyte on a solid surface through an enzyme-linked reagent.

Series [2] can be described thus: Pharmacokinetics in NHP plasma after single s.c. injection.
The nature of series [3]: Solubility of Cp40-based analogs in PBS.
Series [4] in a line: Residence time in the vitreous after intravitreal injection (WES / SPR competition assay). Format: in vivo, cynomolgus monkeys. The note with it: for detection in the vitreous at time points post-injection: days 14-90. As for the experimental part: To determine the residence time of mPEG(3k)-Cp40, mPEG(1k)-Cp40, Cp40-KK, and Cp40-KKK in the vitreous of cynomolgus macaques, these Cp40-based analogs were administered intravitreally (i.v.t.) to the animals after induction of light ketamine anesthesia (10-15 mg/kg, by intramuscular injection (i.m.)) and dilation of the pupils with tropicamide/phenylephrine ophthalmic solution (see Table 6 for study design).
For i.v.t. injection, the cynomolgus monkeys were anesthetized with a combination of ketamine (15-25 mg/kg, i.m.) and xylazine (2 mg/kg, i.m.) and the eye was cleaned with povidone-iodine solution. After application of oxybuprocaine hydrochloride solution (Benoxil® ophthalmic solution 0.4%) to the cornea as a local anesthetic, the Cp40-based analogs were administered to the animals by i.v.t. injection into either the right (G1, G3) or left (G2, G4) eye of each animal. Immediately following each injection, a single topical dose of 0.5% levofloxacin was administered. After i.v.t. injection of mPEG(3k)-Cp40, mPEG(1k)-Cp40, Cp40-KK, and Cp40-KKK, vitreous fluid samples (about 50 μL each) were withdrawn from Cp40-based analog-treated eyes on days 14, 28, 42, (G1, G2, G3, G4), 56, 73, 90 (G1, G2) (this was done either three times or six times). Samples were collected on ice and stored in a deep freezer (−79.3 to −68.5° C.) until further analysis. On day 73 and 90, about 100 μL of vitreous fluid from G1 and G2 were withdrawn. Presence and concentration of the Cp40-based analogs was determined using either the simple western technology (WES, ProteinSimple, San Jose, Calif.), or surface plasmon resonance (SPR)-based real-time measurement of binding kinetics on a Cp40-KKK immobilized chip (see detailed methods below). Similar results with regard to the intravitreal residence time and concentration levels of the test compounds were obtained regardless of the quantification method selected.
To quantify the levels of all test compounds in vitreous samples collected at different time points following i.v.t. injection (see FIG. 15), WES analysis was performed on a WES instrument (ProteinSimple, San Jose, Calif.) using a 2 to 40 kDa Separation Module and Anti-Rabbit Detection Module according to the manufacturers' instructions. In brief, undiluted eye vitreous samples were mixed with a Fluorescent Master Mix and heated at 95° C. for 5 min. The samples, blocking reagent, primary antibodies (in house developed anti-Cp40; 1:1000 in blocking reagent), HRP-conjugated secondary antibody (anti-rabbit IgG) and chemiluminescent substrate were pipetted into the plate (part of Separation Module). The used instrument settings were: stacking and separation at 375 V for 27 min; blocking reagent for 30 min, primary and secondary antibody both for 30 min; Luminol/peroxide chemiluminescence detection for ˜15 min (exposures of 5, 15, 30, 60, 120, 240, and 480 s). The resulting electropherograms were evaluated using the Compass software (ProteinSimple, San Jose, Calif.). The following criteria were used to discriminate low peptide signals from background: The peak signal-to-noise (S/N) ratio given by the software must be ≥10, and the peak height/baseline ratio (calculated manually from the peak height and baseline values given by the software) must be equal to or greater than 3. A five-point standard curve of known concentrations (100-2,000 nM) of peptide spiked in rabbit vitreous was used to calculate peptide concentration in the vitreous samples using the Compass software (Compass Software Inc., Atlanta, Ga.). […] Shown in FIG. 15 is a representative standard curve generated using the WES system and bands obtained upon running pre-determined amounts of purified peptide spiked into rabbit vitreous samples.
To corroborate the WES-based measurements for all test compounds, an SPR-based competition assay was developed for detecting Cp40 and Cp40 analogs in biological samples. […] The samples were heated at 95° C. for 5 min. […]

A short description of series [5]: Pharmacokinetics after single i.m. injection. The note with it: cynomolgus monkey, in vivo, im, 25 mg/kg.
Series [6] is described as follows: Plasma concentration after multiple injections in NHP. The class given is in vivo, cynomolgus monkeys. The note with it: cynomolgus monkey, plasma, sc; 2 mg/kg every 48 hrs; read-out: observed Cmax after multiple s.c. dosing.
The next series addresses T1, purified human C3b (Homo sapiens, UniProt P01024).
T1 construct: purchased Complement Technology, Inc., Tyler, Tex
As to the kind of experiment: SPR C3b binding of Cp40-KKK in vitreous samples. The note with it: for C3b-binding signal: day 14. As for the experimental part:
To confirm that the compound present in the NHP vitreous maintains C3b-binding activity, which is a prerequisite for eliciting its inhibitory action across all complement pathways, surface plasmon resonance (SPR) binding experiments were conducted. Briefly, for a positive binding control, serial dilutions of Cp40-KKK (16, 8, 4, and 2 nM) were added to rabbit vitreous samples and flowed onto a Biacore CM5 chip immobilized with purified human C3b (Complement Technology Inc, Tyler, Tex.) (see FIG. 19A). Next, vitreous samples were collected from a Cp40-KKK injected eye at day 14 post-injection and subjected to heat-inactivation at 95° C. for 5 min. Both heat-inactivated and non-heat-inactivated samples were flowed onto a CM5 chip immobilized with purified human C3b as indicated above (FIG. 19B).

A short description of series [7]: Lys cleavage fragments in NHP plasma after s.c. injection (UPLC-ESI-MS). The class given is in vivo, cynomolgus monkeys. The note with it: after s.c. 2 mg/kg Cp40-KKK, both animals.
The nature of series [8]: Pharmacokinetics after single i.v. injection. Further details: species or system cynomolgus monkeys. The note with it: cynomolgus monkey, in vivo, iv. As for the experimental part:
In vivo pharmacokinetic studies were conducted, in which cynomolgus monkeys were administered single i.v. injections of mPEG(1k)-Cp40, mPEG(3k)-Cp40, Cp40-KK, or Cp40-KKK.

Another series concerns the target T2, human C3b (Homo sapiens, UniProt P01024).
T2 construct: purchased Complement Technology, Inc., Tyler, Tex
As to the kind of experiment: SPR binding affinity and kinetics with C3b. The note with it: 25° C., 1:1 Langmuir model; read-out: ka, association constant. (Surface plasmon resonance follows binding to a sensor surface in real time, without labels.)

Another series relates to C3. Kind of series: C3 saturation in NHP plasma after single s.c. injection. Format: in vivo, cynomolgus monkeys (Macaca fascicularis). As to conditions: single s.c. 2 mg/kg.
For series [9] the following is noted: cynomolgus monkey, in vivo, sc, 2 mg/kg.
The mark [10] stands for this setting: single s.c. 2 mg/kg, NHP plasma, two animals, listed as Cp40-KKK (SUM), 2 mg/kg.
Where [11] appears, read: at the solubility concentration.

This is an account of results in patent US10800812B2, “Compstatin analogs with increased solubility and improved pharmacokinetic properties” (The Trustees of the University of Pennsylvania, priority 2018, dated 2020).

Where “and” joins values, the source holds several entries; their conditions need not be identical. Equal values may be shown once. Read-outs that look alike come from different tables or passages of the source. Marks after values point to notes of the source that are not given here.

T1 sequence (P01024 23-667 limits assumed): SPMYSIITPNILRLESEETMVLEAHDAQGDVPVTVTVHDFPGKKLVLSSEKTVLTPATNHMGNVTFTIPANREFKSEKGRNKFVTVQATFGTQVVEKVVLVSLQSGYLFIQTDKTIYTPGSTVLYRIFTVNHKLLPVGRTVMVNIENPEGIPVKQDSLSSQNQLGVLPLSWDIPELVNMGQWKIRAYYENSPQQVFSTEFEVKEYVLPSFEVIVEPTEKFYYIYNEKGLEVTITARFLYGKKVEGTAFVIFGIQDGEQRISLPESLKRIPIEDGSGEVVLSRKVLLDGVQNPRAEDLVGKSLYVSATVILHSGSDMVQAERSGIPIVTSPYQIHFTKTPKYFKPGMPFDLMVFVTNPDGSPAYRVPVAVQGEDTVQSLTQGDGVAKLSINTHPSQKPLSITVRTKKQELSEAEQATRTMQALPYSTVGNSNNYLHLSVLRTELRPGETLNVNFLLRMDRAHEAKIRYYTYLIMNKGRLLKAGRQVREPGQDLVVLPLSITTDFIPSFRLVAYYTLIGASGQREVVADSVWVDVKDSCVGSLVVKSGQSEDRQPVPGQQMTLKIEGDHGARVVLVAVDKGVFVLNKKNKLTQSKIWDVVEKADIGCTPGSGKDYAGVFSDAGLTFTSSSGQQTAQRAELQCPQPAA
T1 sequence (P01024 749-1663 partner limits assumed): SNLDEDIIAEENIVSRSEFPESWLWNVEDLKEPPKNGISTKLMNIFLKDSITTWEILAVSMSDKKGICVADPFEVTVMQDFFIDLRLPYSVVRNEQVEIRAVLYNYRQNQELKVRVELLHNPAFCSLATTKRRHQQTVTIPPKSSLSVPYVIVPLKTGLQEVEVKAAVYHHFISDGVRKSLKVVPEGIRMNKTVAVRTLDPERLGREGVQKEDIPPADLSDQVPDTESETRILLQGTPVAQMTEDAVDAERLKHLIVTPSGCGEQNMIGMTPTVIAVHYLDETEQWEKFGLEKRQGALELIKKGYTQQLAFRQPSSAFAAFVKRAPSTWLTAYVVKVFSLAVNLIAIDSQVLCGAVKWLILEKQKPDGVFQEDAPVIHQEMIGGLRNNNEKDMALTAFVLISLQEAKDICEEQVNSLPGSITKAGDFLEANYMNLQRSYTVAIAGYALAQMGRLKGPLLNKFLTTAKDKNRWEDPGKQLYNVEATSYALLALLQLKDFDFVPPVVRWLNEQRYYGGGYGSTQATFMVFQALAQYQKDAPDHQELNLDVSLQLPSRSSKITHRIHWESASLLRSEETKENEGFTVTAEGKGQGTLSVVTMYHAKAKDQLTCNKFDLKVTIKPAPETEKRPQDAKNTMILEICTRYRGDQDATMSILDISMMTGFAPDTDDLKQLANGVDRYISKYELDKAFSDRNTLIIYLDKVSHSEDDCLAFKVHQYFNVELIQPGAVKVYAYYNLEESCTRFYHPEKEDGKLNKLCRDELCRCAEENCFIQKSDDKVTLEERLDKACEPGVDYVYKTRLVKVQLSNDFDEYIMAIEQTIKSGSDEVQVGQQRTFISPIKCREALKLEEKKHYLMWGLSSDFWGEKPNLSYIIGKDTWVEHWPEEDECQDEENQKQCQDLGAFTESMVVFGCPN
T2 sequence (P01024 23-667 limits assumed): as the sequence (P01024 23-667 limits assumed) above
T2 sequence (P01024 749-1663 partner limits assumed): as the sequence (P01024 749-1663 partner limits assumed) above

As to `CC[C@H](C)[C@H](NC(=O)[C@H](N)Cc1ccc(O)cc1)C(=O)N[C@H]1CSSC[C@@H](C(=O)N(C)[C@H](C(=O)N[C@@H](CCCCN)C(=O)N[C@@H](CCCCN)C(=O)N[C@@H](CCCCN)C(N)=O)[C@@H](C)CC)NC(=O)[C@H](CCCNC(=N)N)NC(=O)[C@H](Cc2c[nH]cn2)NC(=O)[C@H](C)NC(=O)CN(C)C(=O)[C@H](Cc2c[nH]c3ccccc23)NC(=O)[C@H](CC(=O)O)NC(=O)[C@H](CCC(N)=O)NC(=O)[C@H](Cc2cn(C)c3ccccc23)NC(=O)[C@H](C(C)C)NC1=O` [Cp40-KKK, DTyr-Ile-[Cys-Val-Trp(Me)-Gln-Asn-Trp-Sar-Ala-His-Arg-Cys]-mIle-Lys-Lys-Lys-NH2], in [1], the “complement classical pathway inhibitory activity” value is listed as “inhibitory activity in a dose-dependent manner”. In series [2] (male, cynomolgus monkey, plasma, sc, 2 mg/kg), this compound showed a CL/F of around 2.7 L/h/kg. For the same compound, the AUC(0-t) was around 616 µM·h in [2] (male, cynomolgus monkey, plasma, sc, 2 mg/kg, AUC0-t (0-120 h), single s.c. 2 mg/kg, NHP plasma, two animals) and 312 µM·h in [8] (single i.v. injection 2 mg/kg, read-out: AUC 0-120). This compound yielded an AUC(0-inf) in series [2] (male, cynomolgus monkey, plasma, sc, 2 mg/kg, AUCinf, single s.c. 2 mg/kg, NHP plasma, two animals) of 805 µM·h. The Cmax in series [2] (male, cynomolgus monkey, plasma, sc, 2 mg/kg, Cmax, single s.c. 2 mg/kg, NHP plasma, two animals) is around 13.5 µM; in series [2] (setting [10]), 11.9 µM and 15.1 µM; in series [6] it was at least 20 µM. The half-life in series [2] (male, cynomolgus monkey, plasma, sc, 2 mg/kg, t1/2, single s.c. 2 mg/kg, NHP plasma, two animals) is around 44.3 h; in series [5], around 192 h; in series [8] (single i.v. injection 2 mg/kg), 35.3 h. In addition, the “AUC0-t increased vs Cp40” value in series [2] (s.c. 2 mg/kg) is reported as around 2.6 fold. Further, the “CL/F decreased vs Cp40” value in series [2] (s.c. 2 mg/kg) is around 3 fold. In series [2] (s.c. 2 mg/kg), the “cmax higher than Cp40” value is around 2 fold. Moreover, the t1/2 is 42 h and 47 h in [2] (single s.c. 2 mg/kg, NHP plasma, two animals, 2 mg/kg); 46.7 h and 41.8 h in series [2] (setting [10]). Besides, in series [2] (setting [10]), the “AUC0-t (0-120 h)” value was 658 µM·h and 573 µM·h. Further, the AUCinf in [2] (setting [10]) was found to be 685 µM·h. In addition, the “pH of the peptide solution in PBS” value was 9.5 in [3] (after additional lyophilization from H2O), 8.5 in series [3] (setting [11]) and 7.5* in [3] (pH adjusted upon addition of PBS). Also, in series [4] (after i.v.t.), the intravitreal residence time is recorded as at least 3 months. Also, the “vitreous residence time at C3 saturating levels” value in [4] (single i.v.t. injection 0.5 mg) was at least 90 days. For the same compound, the “detection in the vitreous at time points post-injection” value in series [4] (single i.v.t. injection 0.5 mg) is listed as “detected even at day 90 post-treatment”. Moreover, the figures for the C3b-binding signal at purified human C3b (heat-inactivated vitreous sample) and at purified human C3b (non-heat inactivated vitreous sample) were 10 relative units and 2 relative units, respectively. Besides, the “binding to C3b” value on purified human C3b (spiked into rabbit vitreous, 2-16 nM) is recorded as “binds to C3b in a dose-dependent manner”. Also, the “C3b-binding activity of compound present in NHP vitreous” value at purified human C3b (vitreous from injected eye, day 14 post-injection) is recorded as “maintains its C3b-binding activity”. In addition, in series [7], the “concentration of intact Cp40-KKK in plasma at any time point” value was at most 2 µM. Moreover, in series [8], the “Lys cleavage in plasma upon i.v. injection” value is “metabolized into Cp40-KK and small amounts of Cp40-K”. For the same compound, the kon at human C3b was 3.83e+06 M⁻¹ s⁻¹.
Consider “mPEG(3k)-Cp40: N-terminus of Cp40 coupled to polydisperse PEG chain of 3 kDa via amide coupling”, for which the “Conc. (solubility in PBS)” value in series [3] (PBS (pH 7.4)) is 270 mg/mL. Further, the “pH of the peptide solution in PBS” value in [3] (setting [11]) came to 7. Moreover, the “detection in the vitreous at time points post-injection” value in series [4] (single i.v.t. injection 0.5 mg) is reported as “detected at day 14 post injection but not in later time points”. Further, the “C3 saturation time (peptide above plasma level of C3)” value with C3 is around 34 h. The CL/F in [9] is around 2.61 L/h/kg.

In general, CL/F refers to the apparent clearance, not corrected for the fraction that reaches the circulation. One may read the AUC(0-inf) as total exposure, with the tail of the curve extrapolated. One may read the Cmax as the highest concentration seen after dosing. What is called half-life is the time needed for the level to fall by half in the phase considered. Read a low half-life as fast loss.
